Test [1] relates to MEIS1 mRNA expression. Kind of test: MEIS1 mRNA expression assay (Quantigene Singleplex) in MOLM14 cells. Format: cell-based, human. Conditions: 48 hours incubation. How it is done: 2b) MEIS1 mRNA Expression Assay
MEIS1 mRNA expression upon treatment of compound was examined by Quantigene Singleplex assay (Thermo Fisher Scientific). This technology allows for direct quantification of mRNA targets using probes hybridizing to defined target sequences of interest and the signal is detected using a Multimode plate reader Envision (PerkinElmer). The MOLM14 cell line was used for this experiment. Cells were plated in 96-well plates at 3,750 cells/well in the presence of increasing concentrations of compounds. After incubation of 48 hours with compounds, cells were lysed in lysis buffer and incubated for 45 minutes at 55° C. Cell lysates were mixed with human MEIS specific capture probe or human RPL28 (Ribosomal Protein L28) specific probe as a normalization control, as well as blocking probes. Cell lysates were then transferred to the custom assay hybridization plate (Thermo Fisher Scientific) and incubated for 18 to 22 hours at 55° C. Subsequently, plates were washed to remove unbound materials followed by sequential addition of preamplifiers, amplifiers, and label probe. Signals (═gene counts) were measured with a Multimode plate reader Envision. IC50S were calculated by dose-response modelling using appropriate software. For all non-housekeeper genes response equal counts corrected for background and relative expression. For each sample, each test gene signal (background subtracted) was divided by the normalization gene signal (RPL28: background subtracted). Fold changes were calculated by dividing the normalized values for the treated samples by the normalized values for the DMSO treated sample. Fold changes of each target gene were used for the calculation of IC50S.

The target of test [2] is T1, menin/MLL (terbium chelate-labeled menin, FITC-MBM1 peptide) (Homo sapiens, UniProt O00255, T541A).
T1 construct: Menin (a.a 1-610-6xhis tag, 2.3 mg/mL in 20 mM Hepes)
T1 sequence (O00255 with tags, fused parts or gaps T541A): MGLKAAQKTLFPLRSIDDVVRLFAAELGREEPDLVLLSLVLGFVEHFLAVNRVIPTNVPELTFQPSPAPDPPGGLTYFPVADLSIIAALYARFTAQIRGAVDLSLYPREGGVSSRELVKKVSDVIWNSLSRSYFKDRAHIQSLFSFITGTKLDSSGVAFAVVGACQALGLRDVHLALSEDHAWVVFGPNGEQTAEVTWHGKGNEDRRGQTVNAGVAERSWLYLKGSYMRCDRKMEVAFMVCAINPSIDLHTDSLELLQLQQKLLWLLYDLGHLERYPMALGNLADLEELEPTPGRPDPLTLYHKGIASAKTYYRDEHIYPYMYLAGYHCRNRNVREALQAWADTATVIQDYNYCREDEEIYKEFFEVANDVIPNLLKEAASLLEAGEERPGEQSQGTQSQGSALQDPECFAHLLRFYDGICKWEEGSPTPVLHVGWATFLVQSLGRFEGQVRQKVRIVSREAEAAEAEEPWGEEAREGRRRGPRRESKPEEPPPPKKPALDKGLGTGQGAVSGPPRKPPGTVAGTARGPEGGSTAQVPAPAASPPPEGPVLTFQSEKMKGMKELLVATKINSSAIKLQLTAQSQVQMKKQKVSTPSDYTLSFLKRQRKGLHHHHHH
Kind of test: Menin/MLL homogenous time-resolved fluorescence (HTRF) assay. The settings on record: 30 min incubation. Format: binding. How it is done: 1) Menin/MLL Homogenous Time-Resolved Fluorescence (HTRF) Assay
To an untreated, white 384-well microtiter plate was added 40 nL 200× test compound in DMSO and 4 μL 2× terbium chelate-labeled menin (vide infra for preparation) in assay buffer (40 mM Tris HCl, pH 7.5, 50 mM NaCl. 1 mM DTT (dithiothreitol) and 0.05% Pluronic F-127). After incubation of test compound and terbium chelate-labeled menin for 30 min at ambient temperature, 4 μL 2×FITC-MBM1 peptide (FITC-β-alanine-[…]-NH2) (“FITC” means fluorescein isothiocyanate) in assay buffer was added, the microtiter plate centrifuged at 1000 rpm for 1 min and the assay mixtures incubated for 15 min at ambient temperature. The relative amount of menin FITC-MBM1 complex present in an assay mixture is determined by measuring the homogenous time-resolved fluorescence (HTRF) of the terbium/FITC donor/acceptor fluorphore pair using an EnVision microplate reader (ex. 337 nm/terbium em. 490 nm/FITC em. 520 nm) at ambient temperature. The degree of fluorescence resonance energy transfer (the HTRF value) is expressed as the ratio of the fluorescence emission intensities of the FITC and terbium fluorophores (F^em520 nm/F^em490 nm). The final concentrations of reagents in the binding assay are […] terbium chelate-labeled menin, 75 nM FITC-MBM1 peptide and 0.5% DMSO in assay buffer. Dose-response titrations of test compounds are conducted using an 11 point, four-fold serial dilution scheme, starting typically at 10 μM.
Compound potencies were determined by first calculating % inhibition at each compound concentration according to equation 1:
% inhibition=((HC−LC)−(HTRF^compound−LC))/(HC−LC))*100 (Eqn 1)
Where LC and HC are the HTRF values of the assay in the presence or absence of a saturating concentration of a compound that competes with FITC-MBM1 for binding to menin, and HTRF^compound is the measured HTRF value in the presence of the test compound. HC and LC HTRF values represent an average of at least 10 replicates per plate.
% inhibition=Bottom+(Top−Bottom)/(1+10^((log/C50−log[cmpd])*h)) (Eqn 2)
Where Bottom and Top are the lower and upper asymptotes of the dose-response curve, respectively, IC50 is the concentration of compound that yields 50% inhibition of signal and h is the Hill coefficient.
Preparation of Terbium cryptate labeling of Menin: Menin (a.a 1-610-6xhis tag, 2.3 mg/mL in 20 mM Hepes (2-[4-(2-Hydroxyethyl)-1-piperazinyl]ethane sulfonic acid), 80 mM NaCl, 5 mM DTT (Dithiothreitol), pH 7.5) was labeled with terbium cryptate as follows. 200 μg of Menin was buffer exchanged into 1×Hepes buffer. 6.67 μM Menin was incubated with 8-fold molar excess NHS (N-hydroxysuccinimide)-terbium cryptate for 40 minutes at room temperature. Half of the labeled protein was purified away from free label by running the reaction over a NAP5 column with elution buffer (0.1M Hepes, pH 7+0.1% BSA (bovine serum albumin)). The other half was eluted with 0.1 M phosphate buffered saline (PBS), pH7. 400 μl of eluent was collected for each, aliquoted and frozen at −80° C. The final concentration of terbium-labeled Menin protein was 115 μg/mL in Hepes buffer and 85 μg/mL in PBS buffer, respectively.

Some results are limits rather than exact numbers.

A word on the IC50: it is the concentration needed to halve the response being measured. Low readings indicate inhibition by little substance, high ones a need for much substance. In the case of `CC(=O)N1C[C@@H]2CN(CCCC(C(C)C)N3CC[C@@H](Cc4cn(-c5ccc(F)cc5C(=O)N(C)C(C)C)c5cncc(C)c45)C3)C[C@H]2C1` (mixture of isomers) [Compound 12], the IC50 in test [1] (Homo sapiens, MOLM-14, 48 h) is 5 nM; in test [2] it was 0.018 nM.

In the case of `CC(=O)NCC(C1CCN(C(C)=O)CC1)N1CC[C@@H](Cc2cn(-c3ccc(F)cc3C(=O)N(C)C(C)C)c3cncc(C)c23)C1` (mixture of isomers) [Compound 225], the IC50 is 340 nM in test [1] (Homo sapiens, MOLM-14, 48 h) and 0.637 nM in test [2].

For the compound `Cc1cncc2c1c(CC1CN(CC3CCOCC3)C1)cn2-c1ccc(F)cc1C(=O)N1C2COCC1C2` [Compound 263], the IC50 came to 175 nM in test [1] (Homo sapiens, MOLM-14, 48 h) and 0.258 nM in test [2].

Consider `Cc1cncc2c1c(CC1(C)CCN(CC3CCOCC3)C1)cn2-c1ccc(F)cc1C(=O)N(C)C(C)C` (stereo not drawn) [Compound 239], for which the IC50 in test [1] (Homo sapiens, MOLM-14, 48 h) came to 138 nM; in test [2], 0.305 nM.

Regarding `Cc1cncc2c1c(CC1CN(CC(=O)N3CC4CC4C3)C1)cn2-c1ccc(F)cc1C(=O)N(C)C(C)C` (stereo not drawn) [Compound 97], the IC50 was found to be 1610 nM in test [1] (Homo sapiens, MOLM-14, 48 h) and 1.97 nM in test [2].

Consider `CC(=O)N1CCC([C@H](C)N2CC[C@@H](Cc3cn(-c4ccc(F)cc4[S@@](=N)(=O)C(C)C)c4cncc(C)c34)C2)CC1` (single isomer, unassigned) [Compound 231b], for which the IC50 in test [1] (Homo sapiens, MOLM-14, 48 h) was greater than 1000 nM; in test [2] it was 6.94 nM.

Take `Cc1cncc2c1c(C[C@@H]1CCN(CC3CCN(C(=O)C(C)(C)O)CC3)C1)cn2-c1ccc(F)cc1C(=O)N1[C@H](C)CC[C@@H]1C` [Compound 344]: the IC50 in test [1] (Homo sapiens, MOLM-14, 48 h) was 14 nM; in test [2] it was roughly 0.058 nM.

As for `CC(=O)N1CCC(CN2CCC(Cc3cn(-c4ccc(F)cc4C(=O)N(C)C(C)C)c4cncc(C)c34)C2C)CC1` (stereo not drawn) [Compound 226], the IC50 is 269 nM in test [1] and 0.255 nM in test [2].

For the compound `CC(=O)N1CC[C@@H](CN2CCC(Cc3cn(-c4ccc(F)cc4C(=O)N(C)C(C)C)c4cncc(C)c34)C2)C1` (single isomer, unassigned) [Compound 99], the IC50 in test [1] (Homo sapiens, MOLM-14, 48 h) is roughly 792 nM; in test [2], 0.217 nM.

Consider `Cc1cncc2c1c(C[C@@H]1CCN(CC3CCN(C(=O)C(C)(C)O)CC3)C1)cn2-c1ccc(F)cc1C(=O)N1CC2CC1CO2` (stereo partly drawn) [Compound 345], for which the IC50 in test [1] (Homo sapiens, MOLM-14, 48 h) is 36 nM; in test [2] it was 0.204 nM.

Regarding `Cc1cncc2c1c(CC1CN(CC3CCN(C(=O)C(C)(C)O)CC3)C1)cn2-c1ccc(F)cc1C(=O)N(C)C(C)C` [Compound 250], the IC50 in test [1] (Homo sapiens, MOLM-14, 48 h) is 30 nM; in test [2] it was 0.076 nM.

For the compound `CC(=O)N1CC[C@H](CN2CCC(Cc3cn(-c4ccc(F)cc4C(=O)N(C)C(C)C)c4cncc(C)c34)C2)C1` (single isomer, unassigned) [Compound 100], the IC50 amounted to 434 nM in test [1] (Homo sapiens, MOLM-14, 48 h) and 0.165 nM in test [2].

Regarding `CC(=O)N1CCC[C@@H](CN2CC(Cc3cn(-c4ccc(F)cc4C(=O)N(C)C(C)C)c4cncc(C)c34)C2)C1` (single isomer, unassigned) [Compound 90b], the IC50 in test [1] (Homo sapiens, MOLM-14, 48 h) amounted to 103 nM; in test [2], 0.263 nM.

As to `Cc1cncc2c1c(CC1CN(CC(=O)N3CCOCC3)C1)cn2-c1ccc(F)cc1C(=O)N(C)C(C)C` [Compound 83], the IC50 in test [1] (Homo sapiens, MOLM-14, 48 h) came to 2220 nM; in test [2], 1.3 nM.

With `CC(=O)N1CCC(CN2CC[C@H](Cc3cn(-c4ccc(F)cc4[S@@]4(=O)=NCCC4)c4cncc(C)c34)C2)CC1` (single isomer, unassigned) [Compound 224a], the IC50 in test [1] (Homo sapiens, MOLM-14, 48 h) is greater than 1000 nM; in test [2] it was 30.7 nM.

With `CC(=O)N1CCC([C@@H](C)N2CC[C@@H](Cc3cn(-c4ccc(F)cc4[S@@](=N)(=O)C(C)C)c4cncc(C)c34)C2)CC1` (single isomer, unassigned) [Compound 231a], the IC50 is 52 nM in test [1] (Homo sapiens, MOLM-14, 48 h) and 0.311 nM in test [2].

Take `Cc1cncc2c1c(C[C@@H]1CCN(CC3CCN(C(=O)N(C)C)CC3)C1)cn2-c1ccc(F)cc1C(=O)N(C)C(C)C` [Compound 149]: the IC50 in test [1] (Homo sapiens, MOLM-14, 48 h) worked out at 23 nM; in test [2], 0.037 nM.

Regarding `CC(=O)N1CC2CC(CN3CC(Cc4cn(-c5ccc(F)cc5C(=O)N(C)C(C)C)c5cncc(C)c45)C3)CC(C2)C1` (stereo not drawn) [Compound 300], the IC50 in test [1] (Homo sapiens, MOLM-14, 48 h) stood at 55 nM; in test [2], 0.116 nM.

With `Cc1cncc2c1c(C[C@@H]1CCN(CC3CCOCC3)C1)cn2-c1ccc(F)cc1C(=O)N1CCC(O)C1C` (stereo in doubt) [Compound 358], the 50% inhibitory concentration (IC50) in test [1] (Homo sapiens, MOLM-14, 48 h) worked out at 386 nM; in test [2], 0.223 nM.

Consider `CC(=O)N1CCC(N2CC[C@@H](Cc3cn(-c4ccc(F)cc4C(=O)N(C)C(C)C)c4cncc(C)c34)C2)C(C)(C)C1` (mixture of isomers) [Compound 234], for which the IC50 in test [1] (Homo sapiens, MOLM-14, 48 h) is 18 nM; in test [2], roughly 0.068 nM.

For `Cc1cncc2c1c(C[C@H]1CCN(CC3CCCC(=O)N3)C1)cn2-c1ccc(F)cc1C(=O)N(C)C(C)C` (mixture of isomers) [Compound 89], the IC50 in test [1] (Homo sapiens, MOLM-14, 48 h) is roughly 895 nM; in test [2], 0.183 nM.

Regarding `CCC([C@H]1C[C@@H](N2CCN(C(C)=O)CC2)C1)N1CC[C@H](Cc2cn(-c3ccc(F)cc3C(=O)N(C)C(C)C)c3cncc(C)c23)C1` (mixture of isomers) [Compound 25], the IC50 came to 91 nM in test [1] (Homo sapiens, MOLM-14, 48 h) and 0.087 nM in test [2].

Take `CC(=O)N1C[C@@H]2CN([C@H]3C[C@@H](C(C(C)C)N4CC(Cc5cn(-c6ccc(F)cc6C(=O)N(C)C(C)C)c6cncc(Cl)c56)C4)C3)C[C@H]2C1` (single isomer, unassigned) [Compound 40a]: the IC50 in test [1] (Homo sapiens, MOLM-14, 48 h) was roughly 540 nM; in test [2] it was 0.841 nM.

As to `CC(=O)N1CCC(CN2CC[C@@H](Cc3cn(-c4ccc(F)cc4C(=O)N4[C@H](C)CC[C@H]4C)c4cncc(C)c34)C2)CC1` [Compound 354], the IC50 is 18 nM in test [1] (Homo sapiens, MOLM-14, 48 h) and 0.04 nM in test [2].
